Consider 2 molecules from patent US20260061000A1, “COMPOSITIONS AND METHODS FOR THE TREATMENT OF CARDIAC ARRHYTHMIAS, INCLUDING ATRIAL FIBRILLATION” (Lankenau Institute for Medical Research, priority 2022, published 2026).

Values joined by “and” are separate entries in the source; they are usually repeats but may differ in a detail not shown here. Equal entries are not always repeated. “Also recorded” adds a separate entry of the source.

In assay [1] the test system is atria. As to the kind of experiment: Electrophysiological parameters (APD, ERP, PRR, DTE) in atria of isolated arterially-perfused canine preparations. The protocol: (§1) Experiments were performed using isolated arterially-perfused canine preparations perfused with Tyrode's solution containing (in mM): NaCl 129, KCl 4, NaH2PO4 0.9, NaHCO3 20, CaCl2 1.8, MgSO4 0.5, glucose 5.5, insulin lunit/liter, bubelled with 95% O2 and 5% CO2. pH=7.4. Preparations consisting of the right atrium with a rim of right ventricle (1.0-2.0 cm) were isolated from the canine hearts (FIG. 1). The ostium of the right coronary artery was cannulated with polyethylene tubing, and the preparations were perfused with cold Tyrode's solution (8°-12° C.) containing 8.5 [K^+]0. With continuous coronary perfusion, all ventricular branches of the right coronary artery were immediately clamped with metal clips (1.5×10 mm; Kent Scientific Corp., Torrington, CT). The total time from excision of the heart to cannulation and perfusion of the artery was 4 minutes. […] coronary branches were ligated using silk thread. The preparations were placed in a temperature-controlled bath (8×6×4 cm) and perfused at a rate of 10-15 mL/min using Tyrode's solution. The temperature was maintained at 37° C.±0.5° C. (PolyStat; Cole Parmer Instrument, IL). The perfusate was delivered to the artery by a roller pump (MasterFlex L/S, Cole Parmer Instrument). An air trap was used to avoid bubbles in the perfusion line.
(§2) Transmembrane action potential (AP) recordings (sampling rate 41 kHz) were obtained from the right atrium and ventricle using floating glass microelectrodes (10-25 MΩ DC resistance). Glass microelectrodes were connected to a high-input impedance intracellular amplifier (Electro-705; World Precision Instruments, Sarasota, FL). A pseudo-electrocardiogram (ECG) was recorded using two electrodes consisting of Ag/AgCl half cells placed in the Tyrode's solution bathing the preparation, 1.0 to 1.2 cm from opposite ends of the atrial coronary-perfused preparations (FIG. 1). The signals were amplified, digitized, and analyzed (Cambridge Electronic Design, Cambridge, England). Effective refractory period (ERP) was measured by delivering premature stimuli after every 10th basic beat at a pacing cycle length (CL) of 500 ms. The diastolic threshold of excitation (DTE) was determined by increasing stimulus intensity in 0.01 mA steps starting from 0.1 mA, until a steady 1:1 activation was achieved. Post-repolarization refractoriness (PRR) was recognized when ERP exceeded an action potential duration at 90% repolarization (APD90) in the ventricle and action potential duration at 70% repolarization (APD70) in atria. Ventricular ERP coincides with APD90, whereas atrial ERP generally coincides with APD70.^4 The electrophysiological measurements were performed following at least 20 min of perfusion with flecainide and 5 min with elevated potassium concentrations. The electrophysiological measurements were obtained at a CL of 500 ms.

The subject of assay [2] is acetylcholine-mediated AF. As to the kind of experiment: AF cardioversion in canine acetylcholine-mediated AF model (isolated coronary-perfused right atrial preparations). To be noted: for AF cardioversion (atria cardioverted / tested): flecainide 1.5 μM. As for the experimental part:
This investigation conforms with the Guide for Care and Use of Laboratory Animals. Hearts from purpose-bred adult male Beagle dogs (10-16 kg, 10-19 months old) were obtained from Envigo (Denver, PA). Dogs were sedated with ketamine (10 mg/kg, intramuscularly [IM]) and xylazine (2 mg/kg, IM). Prior to euthanasia with Euthasol solution (pentobarbital sodium and phenytoin sodium; 0.22 ml/kg, intravenously [IV]), heparin (human pharmaceutical grade, 1,000 U/kg, IV) was administered. The heart was then isolated via a left thoracotomy. Retrograde aortic perfusion of the hearts with ice-cold cardioplegic solution (modified Krebs-Henseleit solution [K-H]; 16 mM KCl) was immediately performed to clear the coronary vasculature of blood. The hearts were then placed in a sealed container containing ice-cold cardioplegic solution and transported to our institution via a private courier in an insulated package surrounded by icepacks.
as §1
A well-established acetylcholine (ACh)-mediated non-self-terminating (persistent) AF experimental model was used in the current study.^4 AF was induced by either delivering a single premature stimulus or by rapid pacing (CLs=40-80 ms, for 2-5 seconds). The efficacy and time course for flecainide to cardiovert AF (induced at 4 mM potassium) was studied at 4 mM (baseline) and at 5, 6, and 8 mM of potassium concentration ([K^+]0). Sustained AF (here defined as lasting >1 hour) was induced in 100% experiments in the presence of 4 mM [K^+]. 5-7 minutes after non-self-terminating AF was first introduced at 4 mM [K^+]0, flecainide was added to the Tyrode's perfusate containing either 4 mM [K^+]0 or with a concomitant increase in potassium concentration (to 5, 6, or 8 mM).
Additionally, the capability of elevated potassium (5, 6, and 8 mM) alone to terminate AF was investigated. In these experiments, sustained AF was first induced at 4 mM [K^+]0 and 5-7 minutes later potassium concentrations were increased (to 5, 6, or 8 mM). To mimic hypokalemia, AF termination efficacy of flecainide was tested at 3 mM [K^+]0. If AF was not terminated by the tested conditions in 45 minutes, the AF was considered as “non-terminating”. In the experiments in which AF was cardioverted by tested conditions tested, electrical re-induction of AF was attempted within 1-5 minutes after AF termination (≥5 attempts in ≥2 atrial locations).
Overall, 41 right atrioventricular preparations isolated from 41 canine hearts were used in the study, with 46 experiments investigating AF cardioversion and 11 experiments investigating electrophysiological parameters in atria and ventricles. […]

For assay [3], the system named is acetylcholine-mediated AF. The experiment in a line: Electrical re-induction of AF after AF termination in isolated canine right atrial preparations. As for the experimental part:
A well-established acetylcholine (ACh)-mediated non-self-terminating (persistent) AF experimental model was used in the current study.^4 AF was induced by either delivering a single premature stimulus or by rapid pacing (CLs=40-80 ms, for 2-5 seconds). The efficacy and time course for flecainide to cardiovert AF (induced at 4 mM potassium) was studied at 4 mM (baseline) and at 5, 6, and 8 mM of potassium concentration ([K^+]0). Sustained AF (here defined as lasting >1 hour) was induced in 100% experiments in the presence of 4 mM [K^+]. 5-7 minutes after non-self-terminating AF was first introduced at 4 mM [K^+]0, flecainide was added to the Tyrode's perfusate containing either 4 mM [K^+]0 or with a concomitant increase in potassium concentration (to 5, 6, or 8 mM). Additionally, the capability of elevated potassium (5, 6, and 8 mM) alone to terminate AF was investigated. In these experiments, sustained AF was first induced at 4 mM [K^+]0 and 5-7 minutes later potassium concentrations were increased (to 5, 6, or 8 mM). To mimic hypokalemia, AF termination efficacy of flecainide was tested at 3 mM [K^+]0. If AF was not terminated by the tested conditions in 45 minutes, the AF was considered as “non-terminating”. In the experiments in which AF was cardioverted by tested conditions tested, electrical re-induction of AF was attempted within 1-5 minutes after AF termination (≥5 attempts in ≥2 atrial locations).

Assay [4] concerns ventricles. The experiment in a line: Electrophysiological parameters (APD, ERP, DTE) in ventricles of isolated arterially-perfused canine preparations. To be noted: CL 500 ms. The protocol: as §1, §2
Assay [5] has as its system ACh-mediated AF. To be noted: elevation of [K+]0 from 4 to 6-8 mM; isolated pig atria; cited from earlier work.
The test system of assay [6] is recent-onset AF. The settings on record: flecainide via oral inhalation; patients with recent-onset AF; cited from earlier work.
[7] abbreviates: [K+]0 from 4 to 6 mM, CL 500 ms.
Setting [8] is: flecainide 1.5 μM added at [K+]0 6 mM, CL 500 ms.
Where [9] appears, read: flecainide at [K+]0 4 mM, CL 500 ms.
Where [10] appears, read: after cardioversion by flecainide and elevated [K+]0 (5-8 mM).
Where [11] appears, read: after cardioversion by flecainide at [K+]0 4 mM.

In the case of `[K+]` [[K^+]0], the DTE in atria result in assay [1] (6 mM [K+]0 vs 4 mM, CL 500 ms) is listed as “not significantly affected”. In assay [1] (setting [7]), the APD in atria result is given as “abbreviated”, the ERP in atria result was “significantly prolonging” and the “Post-repolarization refractoriness (PRR)” value was “atrial-selective induction”. For the same molecule, the “AF terminated, % of experiments / atria” value in assay [2] (no flecainide, [K+]0 from 4 to 8 mM) was found to be 100%. In assay [2] (no flecainide, [K+]0 increased from 4 to 5 mM), the “AF termination (atria terminated / tested)” value is “did not terminate and 0/5 and did not cardiovert”. Moreover, the “AF termination (atria terminated / tested)” value in assay [2] (no flecainide, [K+]0 increased from 4 to 6 mM) is reported as 2/6. In assay [2] (no flecainide, [K+]0 increased from 4 to 8 mM), the “AF termination (atria terminated / tested)” value is 4/4. In addition, the “Duration of re-induced AF” value in assay [3] (6 mM [K+]0 alone, in one of two experiments) is 20 min. Moreover, in assay [3] (8 mM [K+]0 alone), the “AF inducible after termination (atria)” value is 4/4 and the “Duration of re-induced AF episodes” value was not above 26 s. For the same molecule, the “AF/AT inducibility after termination” value in assay [3] (two experiments in which 6 mM [K+]0 alone terminated AF) is “readily inducible in both”. Also, the DTE in ventricles entry in assay [4] (6 mM [K+]0 vs 4 mM) was “not significantly affected”. Moreover, in assay [4] ([K+]0 from 4 to 6 mM), the APD in ventricles result is “significantly abbreviated” and the ERP in ventricles entry is “significantly abbreviated”. In assay [5], the “AF cardioversion (atria cardioverted / tested)” value is 3/4.

`O=C(NCC1CCCCN1)c1cc(OCC(F)(F)F)ccc1OCC(F)(F)F` (stereo not shown) [flecainide]: the “Depression of excitability, atria vs ventricles” value in assay [1] (combined flecainide and elevated [K+]0 (6 mM)) is “atrial predominant depression of excitability; also recorded: atrial preferential depression of excitability”. Also, the figures for the ERP in atria entry in assay [1] (setting [8]) and in assay [1] (setting [9]) were “much more pronounced in the atria” and “substantial lengthening”, respectively. In addition, in assay [1] (setting [8]), the “Post-repolarization refractoriness (PRR)” value was “atrial predominant development”. Moreover, the DTE entry in assay [1] (flecainide alone at [K+]0 4 mM, CL 500 ms) is “moderate atrial predominant increase”; in assay [1] (flecainide in the presence of 6 mM [K+]0, CL 500 ms), “large atrial-selective increase”. The APD in atria entry in assay [1] (setting [9]) is “no significant change”. Moreover, the “AF cardioversion (atria cardioverted / tested)” value is 1/6 in assay [2] ([K+]0 3 mM (simulated hypokalemia)); “moderately effective” in assay [2] ([K+]0 4 mM, ACh 0.5 μM); 3/6 in assay [2] ([K+]0 4 mM, ACh 0.5 μM, listed as Flecainide); “highly effective” in assay [2] ([K+]0 elevated to 5 mM); 5/5 in assay [2] ([K+]0 elevated to 5 mM, listed as Flecainide); “highly effective” in assay [2] ([K+]0 elevated to 6 mM). The “AF cardioversion (atria cardioverted / tested)” value is reported as 5/5 in assay [2] ([K+]0 elevated to 6 mM, listed as Flecainide); “highly effective” in assay [2] ([K+]0 elevated to 8 mM); 4/4 in assay [2] ([K+]0 elevated to 8 mM, listed as Flecainide). In addition, the “Time to conversion (time course of flecainide-mediated AF termination)” value in assay [2] (flecainide, elevation of [K+]0 from 4 to 8 mM vs 4 mM) is reported as “abbreviated”. Further, the “AF/AT inducibility after cardioversion” value in assay [3] (setting [10]) was “either not inducible or induced for a very brief episode; also recorded: either not inducible or induced for very brief episodes”. In addition, the “Duration of re-induced AF/AT episodes” value was less than 100 s in assay [3] (setting [10]) and not above 300 s in assay [3] (setting [11]). Moreover, the “Duration of re-induced AF/AT episodes, in most cases” value in assay [3] (after cardioversion by flecainide and elevated [K+]0 (5-8 mM), in most cases) is less than 10 s. Moreover, in assay [3] (setting [11]), the “AF or atrial tachycardia inducible after cardioversion (preparations)” value is listed as 3/3. Further, the “Duration of re-induced AF episodes” value in assay [3] (flecainide at 3 mM [K+]0 (hypokalemia)) is not above 1860 s. The “AF re-induction after termination” value in assay [3] (flecainide at 3 mM [K+]0 (hypokalemia), the only atria terminated) is recorded as “readily re-induced”. The “Patients restored to sinus rhythm” value in assay [6] was “approximately 50%”. Besides, in assay [4] (flecainide 1.5 μM added at [K+]0 6 mM), the ERP in ventricle result is on record as “prolongation”. Further, the APD in ventricles entry in assay [4] (flecainide at [K+]0 4 mM) is on record as “no significant change”.
